In ChEMBL document CHEMBL4043290, “Structure-based Design of Pyridone-Aminal eFT508 Targeting Dysregulated Translation by Selective Mitogen-activated Protein Kinase Interacting Kinases 1 and 2 (MNK1/2) Inhibition” (J Med Chem, 2018):

Columns and labels:
[1] = molecular target: Platelet-derived growth factor receptor alpha (Homo sapiens) (UniProt P16234); assay: Inhibition of PDGFRA (unknown origin) at 1 uM relative to control
[2] = molecular target: Vascular endothelial growth factor receptor 2 (Homo sapiens) (UniProt P35968); assay: Inhibition of KDR (unknown origin) at 1 uM relative to control
[3] = molecular target: Proto-oncogene tyrosine-protein kinase receptor Ret (Homo sapiens) (UniProt P07949); assay: Inhibition of RET (unknown origin) at 1 uM relative to control
[4] = molecular target: Receptor-type tyrosine-protein kinase FLT3 (Homo sapiens) (UniProt P36888); assay: Inhibition of FLT3 (unknown origin) at 1 uM relative to control
[5] = Metabolic stability in mouse liver microsomes assessed as parent compound remaining at 1 uM after 30 mins by LC-ESI-TOF/MS method; type: ADME, microsome; conditions: read-out: Stability
[6] = Metabolic stability in rat liver microsomes assessed as parent compound remaining at 1 uM after 30 mins by LC-ESI-TOF/MS method; type: ADME, microsome; conditions: read-out: Stability
[7] = Metabolic stability in human liver microsomes assessed as parent compound remaining at 1 uM after 30 mins by LC-ESI-TOF/MS method; type: ADME, microsome; conditions: read-out: Stability
[8] = Oral bioavailability in Balb/c mouse at 10 mg/kg by LC-ESI-TOF/MS or LC-ESI-MS/MS method; type: ADME, organism-based; conditions: in vivo
[9] = Oral bioavailability in Sprague-Dawley rat at 10 mg/kg by LC-ESI-TOF/MS or LC-ESI-MS/MS method; type: ADME, organism-based; conditions: in vivo
[10] = Oral bioavailability in Beagle dog at 3 mg/kg by LC-ESI-TOF/MS or LC-ESI-MS/MS method; type: ADME, organism-based, Canis lupus familiaris; conditions: in vivo
[11] = Oral bioavailability in cynomolgus monkey at 3 mg/kg by LC-ESI-TOF/MS or LC-ESI-MS/MS method; type: ADME, organism-based, Macaca fascicularis; conditions: in vivo
[12] = molecular target: T1, Serine/threonine-protein kinase 17A (Homo sapiens) (UniProt Q9UEE5); assay: Inhibition of DRAK1 (unknown origin) at 1 uM relative to control
T1 sequence (whole entry): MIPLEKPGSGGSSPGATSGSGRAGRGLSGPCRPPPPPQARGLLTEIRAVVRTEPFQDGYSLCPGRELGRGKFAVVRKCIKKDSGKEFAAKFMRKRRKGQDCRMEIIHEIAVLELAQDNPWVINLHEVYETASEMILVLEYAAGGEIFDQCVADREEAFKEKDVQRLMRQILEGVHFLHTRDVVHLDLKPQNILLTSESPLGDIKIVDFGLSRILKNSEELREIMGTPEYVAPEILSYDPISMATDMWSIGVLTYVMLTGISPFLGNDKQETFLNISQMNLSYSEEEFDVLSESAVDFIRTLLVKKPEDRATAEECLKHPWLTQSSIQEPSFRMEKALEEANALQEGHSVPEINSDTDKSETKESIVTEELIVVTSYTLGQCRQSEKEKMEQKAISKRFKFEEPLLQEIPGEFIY

[13] = molecular target: Serine/threonine-protein kinase 17B (Homo sapiens) (UniProt O94768); assay: Inhibition of DRAK2 (unknown origin) at 1 uM relative to control
[14] = molecular target: Dual specificity protein kinase CLK4 (Homo sapiens, UniProt Q9HAZ1); assay: Inhibition of CLK4 (unknown origin) at 1 uM relative to control
[15] = molecular target: Leucine-rich repeat serine/threonine-protein kinase 2 (Homo sapiens) (UniProt Q5S007); assay: Inhibition of LRRK2 (unknown origin) at 1 uM relative to control
[16] = molecular target: TGF-beta receptor type-2 (Homo sapiens) (UniProt P37173); assay: Inhibition of TGFBR2 (unknown origin) at 1 uM relative to control
[17] = molecular target: Dual specificity tyrosine-phosphorylation-regulated kinase 3 (Homo sapiens) (UniProt O43781); assay: Inhibition of DYRK3 (unknown origin) at 1 uM relative to control
[18] = molecular target: T2, Serine/threonine-protein kinase BRSK1 (Homo sapiens) (UniProt Q8TDC3); assay: Inhibition of BRSK1 (unknown origin) at 1 uM relative to control
T2 sequence (whole entry): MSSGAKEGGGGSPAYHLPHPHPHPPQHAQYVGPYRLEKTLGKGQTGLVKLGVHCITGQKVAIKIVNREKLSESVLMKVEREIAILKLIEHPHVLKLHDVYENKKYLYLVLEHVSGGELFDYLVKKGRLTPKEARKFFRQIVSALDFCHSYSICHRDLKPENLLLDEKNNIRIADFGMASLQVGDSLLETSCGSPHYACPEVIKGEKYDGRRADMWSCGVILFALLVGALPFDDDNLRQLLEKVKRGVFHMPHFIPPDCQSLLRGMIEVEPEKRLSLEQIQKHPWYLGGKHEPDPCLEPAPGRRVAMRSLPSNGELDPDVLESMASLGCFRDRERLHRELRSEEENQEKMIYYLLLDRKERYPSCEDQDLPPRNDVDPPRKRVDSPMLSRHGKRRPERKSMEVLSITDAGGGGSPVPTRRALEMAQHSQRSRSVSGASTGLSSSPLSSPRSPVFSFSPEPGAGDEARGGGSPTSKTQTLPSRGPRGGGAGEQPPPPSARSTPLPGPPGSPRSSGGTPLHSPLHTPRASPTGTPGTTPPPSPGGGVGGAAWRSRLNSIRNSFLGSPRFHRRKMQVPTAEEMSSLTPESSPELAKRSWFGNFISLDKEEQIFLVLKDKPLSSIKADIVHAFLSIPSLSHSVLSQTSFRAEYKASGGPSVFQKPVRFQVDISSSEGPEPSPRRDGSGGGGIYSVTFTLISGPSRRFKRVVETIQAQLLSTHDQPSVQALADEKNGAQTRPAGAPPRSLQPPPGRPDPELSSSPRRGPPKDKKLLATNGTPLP

[19] = molecular target: Dual specificity tyrosine-phosphorylation-regulated kinase 2 (Homo sapiens) (UniProt Q92630); assay: Inhibition of DYRK2 (unknown origin) at 1 uM relative to control
[20] = molecular target: Vascular endothelial growth factor receptor 3 (Homo sapiens) (UniProt P35916); assay: Inhibition of FLT4 (unknown origin) at 1 uM relative to control
[21] = molecular target: Tyrosine-protein kinase Fgr (Homo sapiens) (UniProt P09769); assay: Inhibition of FGR (unknown origin) at 1 uM relative to control
[22] = molecular target: Ribosomal protein S6 kinase alpha-6 (Homo sapiens) (UniProt Q9UK32); assay: Inhibition of RSK4 (unknown origin) at 1 uM relative to control
[23] = molecular target: MAP kinase-activated protein kinase 3 (Homo sapiens) (UniProt Q16644); assay: Inhibition of MAPKAPK3 (unknown origin) at 1 uM relative to control
[24] = molecular target: MAP kinase-interacting serine/threonine-protein kinase 1 (Homo sapiens, UniProt Q9BUB5)
physchem = conditions: octanol/water
in vitro = conditions: human, Caco-2
[25] = Oral bioavailability in Beagle dog at 5 mg/kg by LC-ESI-TOF/MS or LC-ESI-MS/MS method; type: ADME, organism-based, Canis lupus familiaris; conditions: in vivo
[26] = Oral bioavailability in cynomolgus monkey at 5 mg/kg by LC-ESI-TOF/MS or LC-ESI-MS/MS method; type: ADME, organism-based, Macaca fascicularis; conditions: in vivo
[27] = molecular target: Receptor-interacting serine/threonine-protein kinase 2 (Homo sapiens) (UniProt O43353); assay: Inhibition of RIPK2 (unknown origin) at 1 uM relative to control
Chain of Receptor-interacting serine/threonine-protein kinase 2 (Homo sapiens) (O43353 whole entry): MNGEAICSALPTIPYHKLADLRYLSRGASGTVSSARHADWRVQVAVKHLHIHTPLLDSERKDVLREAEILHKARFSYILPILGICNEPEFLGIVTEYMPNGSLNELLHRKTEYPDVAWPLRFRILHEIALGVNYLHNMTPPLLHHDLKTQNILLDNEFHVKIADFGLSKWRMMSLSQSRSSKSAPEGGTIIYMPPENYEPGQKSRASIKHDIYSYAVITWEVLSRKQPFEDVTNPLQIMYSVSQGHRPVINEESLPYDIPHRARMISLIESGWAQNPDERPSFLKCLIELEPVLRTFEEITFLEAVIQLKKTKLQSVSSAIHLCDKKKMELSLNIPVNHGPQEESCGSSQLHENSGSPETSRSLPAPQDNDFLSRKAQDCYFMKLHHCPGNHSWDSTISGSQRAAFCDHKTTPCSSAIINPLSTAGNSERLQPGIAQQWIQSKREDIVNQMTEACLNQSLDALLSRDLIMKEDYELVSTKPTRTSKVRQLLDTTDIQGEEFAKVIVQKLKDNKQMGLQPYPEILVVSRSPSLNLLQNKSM

Chain of Dual specificity protein kinase CLK4 (Q9HAZ1 whole entry, looked up): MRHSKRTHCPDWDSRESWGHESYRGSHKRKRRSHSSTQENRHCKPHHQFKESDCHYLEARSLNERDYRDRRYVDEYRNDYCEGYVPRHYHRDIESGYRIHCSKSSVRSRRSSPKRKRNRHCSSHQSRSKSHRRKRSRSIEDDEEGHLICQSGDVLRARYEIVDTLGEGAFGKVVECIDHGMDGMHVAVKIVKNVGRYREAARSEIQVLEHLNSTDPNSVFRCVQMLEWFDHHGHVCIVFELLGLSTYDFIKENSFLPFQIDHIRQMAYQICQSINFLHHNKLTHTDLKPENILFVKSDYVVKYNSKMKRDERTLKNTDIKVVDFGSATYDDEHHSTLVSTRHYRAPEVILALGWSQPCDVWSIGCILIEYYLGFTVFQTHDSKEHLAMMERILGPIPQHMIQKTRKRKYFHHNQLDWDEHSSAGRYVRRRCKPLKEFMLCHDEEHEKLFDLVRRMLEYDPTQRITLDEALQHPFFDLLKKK
Chain of Proto-oncogene tyrosine-protein kinase receptor Ret (Homo sapiens) (P07949 whole entry): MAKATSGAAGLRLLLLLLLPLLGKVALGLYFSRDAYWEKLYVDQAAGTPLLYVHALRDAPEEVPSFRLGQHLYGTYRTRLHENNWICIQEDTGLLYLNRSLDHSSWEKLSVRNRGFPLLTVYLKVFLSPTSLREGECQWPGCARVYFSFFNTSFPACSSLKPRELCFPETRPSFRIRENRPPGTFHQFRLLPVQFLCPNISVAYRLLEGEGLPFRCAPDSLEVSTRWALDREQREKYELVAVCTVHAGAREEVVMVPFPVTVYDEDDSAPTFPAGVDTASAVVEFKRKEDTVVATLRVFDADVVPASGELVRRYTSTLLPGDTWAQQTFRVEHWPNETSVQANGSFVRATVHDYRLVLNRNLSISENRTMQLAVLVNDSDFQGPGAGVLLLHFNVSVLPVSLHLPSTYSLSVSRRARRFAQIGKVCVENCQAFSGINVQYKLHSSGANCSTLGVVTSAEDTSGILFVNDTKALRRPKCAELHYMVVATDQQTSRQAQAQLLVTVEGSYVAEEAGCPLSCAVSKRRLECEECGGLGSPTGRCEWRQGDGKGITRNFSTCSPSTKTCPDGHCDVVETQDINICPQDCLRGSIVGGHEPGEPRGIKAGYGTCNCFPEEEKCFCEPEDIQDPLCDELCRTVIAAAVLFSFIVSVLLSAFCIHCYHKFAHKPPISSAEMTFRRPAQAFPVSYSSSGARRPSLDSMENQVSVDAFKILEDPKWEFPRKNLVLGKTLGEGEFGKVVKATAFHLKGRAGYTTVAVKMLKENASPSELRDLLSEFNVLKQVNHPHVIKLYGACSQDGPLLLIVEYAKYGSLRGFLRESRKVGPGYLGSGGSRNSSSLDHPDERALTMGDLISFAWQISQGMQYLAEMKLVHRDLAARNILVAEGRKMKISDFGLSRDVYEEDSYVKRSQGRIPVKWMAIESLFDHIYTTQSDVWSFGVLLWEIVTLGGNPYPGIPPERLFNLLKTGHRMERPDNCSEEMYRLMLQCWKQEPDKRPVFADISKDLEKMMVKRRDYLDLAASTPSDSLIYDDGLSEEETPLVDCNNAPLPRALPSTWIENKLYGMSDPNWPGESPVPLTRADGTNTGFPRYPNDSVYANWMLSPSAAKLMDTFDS
Chain of Dual specificity tyrosine-phosphorylation-regulated kinase 3 (Homo sapiens) (O43781 whole entry): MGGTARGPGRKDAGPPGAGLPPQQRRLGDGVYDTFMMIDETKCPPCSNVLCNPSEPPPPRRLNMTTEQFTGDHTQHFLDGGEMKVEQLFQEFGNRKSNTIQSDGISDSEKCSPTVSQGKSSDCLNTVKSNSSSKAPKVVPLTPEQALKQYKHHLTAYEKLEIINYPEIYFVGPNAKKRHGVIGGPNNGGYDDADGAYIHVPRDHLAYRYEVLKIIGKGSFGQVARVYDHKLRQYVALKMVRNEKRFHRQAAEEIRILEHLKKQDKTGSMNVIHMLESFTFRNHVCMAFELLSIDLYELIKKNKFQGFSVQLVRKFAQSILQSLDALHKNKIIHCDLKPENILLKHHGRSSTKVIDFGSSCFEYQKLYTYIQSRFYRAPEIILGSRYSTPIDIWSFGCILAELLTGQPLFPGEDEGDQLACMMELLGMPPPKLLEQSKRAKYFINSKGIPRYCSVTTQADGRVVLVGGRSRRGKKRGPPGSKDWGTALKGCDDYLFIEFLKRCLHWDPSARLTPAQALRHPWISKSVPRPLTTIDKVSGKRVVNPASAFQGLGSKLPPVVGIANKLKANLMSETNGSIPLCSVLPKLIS
Chain of Serine/threonine-protein kinase 17B (Homo sapiens) (O94768 whole entry): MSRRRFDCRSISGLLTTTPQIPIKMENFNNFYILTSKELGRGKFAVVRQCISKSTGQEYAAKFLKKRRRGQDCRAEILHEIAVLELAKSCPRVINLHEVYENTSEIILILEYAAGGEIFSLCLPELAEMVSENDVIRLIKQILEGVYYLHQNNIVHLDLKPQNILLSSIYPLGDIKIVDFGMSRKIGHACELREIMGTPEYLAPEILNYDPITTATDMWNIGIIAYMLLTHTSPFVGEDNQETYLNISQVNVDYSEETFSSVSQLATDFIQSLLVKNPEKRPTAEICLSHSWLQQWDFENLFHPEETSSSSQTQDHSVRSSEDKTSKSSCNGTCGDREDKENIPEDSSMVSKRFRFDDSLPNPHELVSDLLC
Chain of Vascular endothelial growth factor receptor 2 (Homo sapiens) (P35968 whole entry): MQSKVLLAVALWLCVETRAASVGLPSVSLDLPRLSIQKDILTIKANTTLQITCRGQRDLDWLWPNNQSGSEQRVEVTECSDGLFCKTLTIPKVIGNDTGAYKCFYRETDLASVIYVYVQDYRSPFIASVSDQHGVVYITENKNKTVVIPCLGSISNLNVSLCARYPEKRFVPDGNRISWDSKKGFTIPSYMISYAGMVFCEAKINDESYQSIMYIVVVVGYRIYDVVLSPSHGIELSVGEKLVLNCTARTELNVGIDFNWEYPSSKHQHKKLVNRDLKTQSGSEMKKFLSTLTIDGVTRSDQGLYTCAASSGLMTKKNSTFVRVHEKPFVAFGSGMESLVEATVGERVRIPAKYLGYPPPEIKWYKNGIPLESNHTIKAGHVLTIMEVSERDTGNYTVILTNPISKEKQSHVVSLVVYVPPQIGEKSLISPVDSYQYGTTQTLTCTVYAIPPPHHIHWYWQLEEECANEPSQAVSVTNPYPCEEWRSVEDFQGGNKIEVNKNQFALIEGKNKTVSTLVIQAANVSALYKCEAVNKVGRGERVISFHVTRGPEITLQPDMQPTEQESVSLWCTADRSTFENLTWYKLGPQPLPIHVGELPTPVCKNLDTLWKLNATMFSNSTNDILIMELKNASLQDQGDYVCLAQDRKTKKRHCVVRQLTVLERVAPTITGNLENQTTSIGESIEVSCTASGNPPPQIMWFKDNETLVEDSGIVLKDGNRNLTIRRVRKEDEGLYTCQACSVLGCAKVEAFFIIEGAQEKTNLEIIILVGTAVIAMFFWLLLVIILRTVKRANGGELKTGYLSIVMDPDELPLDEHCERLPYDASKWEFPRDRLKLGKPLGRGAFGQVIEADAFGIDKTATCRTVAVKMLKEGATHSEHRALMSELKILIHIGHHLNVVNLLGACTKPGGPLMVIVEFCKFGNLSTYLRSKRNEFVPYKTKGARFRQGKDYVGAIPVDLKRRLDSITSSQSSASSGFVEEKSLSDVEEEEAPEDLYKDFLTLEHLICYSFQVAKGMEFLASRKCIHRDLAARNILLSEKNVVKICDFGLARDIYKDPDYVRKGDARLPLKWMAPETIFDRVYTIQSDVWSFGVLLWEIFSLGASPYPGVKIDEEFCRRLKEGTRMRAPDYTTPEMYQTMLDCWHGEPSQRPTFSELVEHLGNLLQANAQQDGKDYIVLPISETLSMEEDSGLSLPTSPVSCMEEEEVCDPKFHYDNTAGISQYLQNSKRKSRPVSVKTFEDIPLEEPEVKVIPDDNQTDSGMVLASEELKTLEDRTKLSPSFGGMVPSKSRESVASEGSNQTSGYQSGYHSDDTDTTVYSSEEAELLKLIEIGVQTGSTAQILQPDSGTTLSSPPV
Chain of TGF-beta receptor type-2 (Homo sapiens) (P37173 whole entry): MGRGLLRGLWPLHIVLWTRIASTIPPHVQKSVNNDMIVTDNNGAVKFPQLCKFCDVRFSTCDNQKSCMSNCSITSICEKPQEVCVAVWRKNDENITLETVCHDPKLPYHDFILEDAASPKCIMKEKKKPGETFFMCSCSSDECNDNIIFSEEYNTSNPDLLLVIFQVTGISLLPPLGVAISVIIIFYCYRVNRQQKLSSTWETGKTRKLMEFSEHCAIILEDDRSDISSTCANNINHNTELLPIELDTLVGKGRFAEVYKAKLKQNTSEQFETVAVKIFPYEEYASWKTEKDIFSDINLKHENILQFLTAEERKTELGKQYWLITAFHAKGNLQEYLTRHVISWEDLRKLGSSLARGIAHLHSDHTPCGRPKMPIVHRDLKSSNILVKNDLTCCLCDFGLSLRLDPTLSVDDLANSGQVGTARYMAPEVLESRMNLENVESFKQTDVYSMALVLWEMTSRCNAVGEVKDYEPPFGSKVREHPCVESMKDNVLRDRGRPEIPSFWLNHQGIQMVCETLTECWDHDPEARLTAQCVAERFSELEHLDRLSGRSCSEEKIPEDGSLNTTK

Row | inhibition [2] [%] | inhibition [3] [%] | remaining at 0.5 h, 1 µM [5] [%] | remaining at 0.5 h, 1 µM [6] [%] | remaining at 0.5 h, 1 µM [7] [%] | bioavailability [8] [%] | bioavailability [9] [%] | inhibition [12] [%] | inhibition [13] [%] | inhibition [14] [%] | inhibition [15] [%] | inhibition [16] [%] | inhibition [17] [%] | inhibition [18] [%] | logP (physchem) | Papp A→B at 2 h, 5 µM (in vitro) [×10⁻⁶ cm/s] | SMILES | also measured
1 | 96 | 87 | 71 | 73 | 85 | 80 | 69 | 95 | 82 | 75 | 52 | 74 | 67 | 58 | 2.4 | 1.2 | Nc1cc(Nc2cc(Cl)c3n(c2=O)C2(CCCC2)NC3=O)ncn1 | inhibition [1]: 55%; inhibition [4]: 55%; bioavailability [10]: > 100%; bioavailability [11]: 51%; inhibition [19]: 81%; inhibition [20]: 89%; inhibition [21]: 60%; inhibition [22]: 58%; inhibition [23]: 54%; IC50 [24]: 0.88 nM
2 | 71 | 55 | 73 | 69 | 89 | 58 | 28 | 96 | 82 | 75 | 59 | 57 | 56 | 55 | 3.2 | 4.2 | Nc1cc(Nc2cc(Cl)c3n(c2=O)C2(CCCCC2)NC3=O)ncn1 | bioavailability [25]: > 100%; bioavailability [26]: 50%; inhibition [27]: 59%
